Results from patent US11541050B2, “Pyrimidine derivatives for the treatment of viral infections” (JANSSEN SCIENCES IRELAND UC, priority 2011, dated 2023).

Legend:
[1] = biological target: T1, human TLR7 (wild type sequence) (Homo sapiens, UniProt Q9NYK1); assay: TLR7 cellular NFκB-luc reporter assay, wild type TLR7; format: cell-based; design: unit not given here; conditions: lowest effective concentration; for TLR 7 wt LEC: wild type TLR7 (compounds 74 onward); for TLR7-wt_LEC: wild type TLR7
T1 construct: expressed in transfected cells; host or cells: HEK293
T1 sequence (Q9NYK1 27-1049): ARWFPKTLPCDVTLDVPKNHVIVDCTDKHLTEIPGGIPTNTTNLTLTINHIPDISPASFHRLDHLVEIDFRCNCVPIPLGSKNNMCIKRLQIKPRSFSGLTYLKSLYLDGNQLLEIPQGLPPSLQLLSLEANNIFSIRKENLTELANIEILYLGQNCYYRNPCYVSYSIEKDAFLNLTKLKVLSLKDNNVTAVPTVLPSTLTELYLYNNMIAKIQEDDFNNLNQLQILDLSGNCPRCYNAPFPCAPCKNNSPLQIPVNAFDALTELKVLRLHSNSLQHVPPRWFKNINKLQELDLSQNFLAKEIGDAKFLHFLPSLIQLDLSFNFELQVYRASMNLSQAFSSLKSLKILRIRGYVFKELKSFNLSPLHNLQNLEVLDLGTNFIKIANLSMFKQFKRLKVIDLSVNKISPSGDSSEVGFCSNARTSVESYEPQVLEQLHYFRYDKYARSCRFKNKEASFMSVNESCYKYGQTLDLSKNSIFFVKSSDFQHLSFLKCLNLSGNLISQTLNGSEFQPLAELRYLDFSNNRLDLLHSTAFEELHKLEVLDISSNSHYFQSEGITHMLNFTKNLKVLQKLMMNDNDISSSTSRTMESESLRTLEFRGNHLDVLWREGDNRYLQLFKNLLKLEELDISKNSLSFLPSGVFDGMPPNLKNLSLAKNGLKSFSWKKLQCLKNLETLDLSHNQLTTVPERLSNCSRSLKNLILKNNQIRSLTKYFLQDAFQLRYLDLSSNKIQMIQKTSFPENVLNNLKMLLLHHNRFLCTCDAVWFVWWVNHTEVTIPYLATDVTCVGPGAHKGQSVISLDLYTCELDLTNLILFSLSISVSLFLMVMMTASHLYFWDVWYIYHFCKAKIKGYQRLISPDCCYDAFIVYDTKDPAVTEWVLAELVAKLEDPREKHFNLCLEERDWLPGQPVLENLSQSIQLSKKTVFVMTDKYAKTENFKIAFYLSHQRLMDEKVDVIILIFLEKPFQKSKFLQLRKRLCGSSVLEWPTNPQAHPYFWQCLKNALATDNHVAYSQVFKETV
Procedure, shortened: (§1)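 HEK293 cells were transiently transfected for 48 h with a CMV-driven wild-type or LRR2-deletion TLR7 or TLR8 plasmid plus an NFκB-luc reporter. They were then exposed to compound for 6 h at 37 °C and luciferase was read. LEC is the concentration giving an effect at least twofold above the assay SD, from quadruplicate dose-response curves.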

[2] = biological target: T2, human TLR8 (wild type sequence) (Homo sapiens, UniProt Q9NR97); assay: TLR8 cellular NFκB-luc reporter assay, wild type TLR8; format: cell-based; design: unit not given here; conditions: lowest effective concentration; for TLR 8 wt LEC: wild type TLR8 (compounds 74 onward)
T2 construct: expressed in transfected cells; host or cells: HEK293
T2 sequence (Q9NR97 27-1041): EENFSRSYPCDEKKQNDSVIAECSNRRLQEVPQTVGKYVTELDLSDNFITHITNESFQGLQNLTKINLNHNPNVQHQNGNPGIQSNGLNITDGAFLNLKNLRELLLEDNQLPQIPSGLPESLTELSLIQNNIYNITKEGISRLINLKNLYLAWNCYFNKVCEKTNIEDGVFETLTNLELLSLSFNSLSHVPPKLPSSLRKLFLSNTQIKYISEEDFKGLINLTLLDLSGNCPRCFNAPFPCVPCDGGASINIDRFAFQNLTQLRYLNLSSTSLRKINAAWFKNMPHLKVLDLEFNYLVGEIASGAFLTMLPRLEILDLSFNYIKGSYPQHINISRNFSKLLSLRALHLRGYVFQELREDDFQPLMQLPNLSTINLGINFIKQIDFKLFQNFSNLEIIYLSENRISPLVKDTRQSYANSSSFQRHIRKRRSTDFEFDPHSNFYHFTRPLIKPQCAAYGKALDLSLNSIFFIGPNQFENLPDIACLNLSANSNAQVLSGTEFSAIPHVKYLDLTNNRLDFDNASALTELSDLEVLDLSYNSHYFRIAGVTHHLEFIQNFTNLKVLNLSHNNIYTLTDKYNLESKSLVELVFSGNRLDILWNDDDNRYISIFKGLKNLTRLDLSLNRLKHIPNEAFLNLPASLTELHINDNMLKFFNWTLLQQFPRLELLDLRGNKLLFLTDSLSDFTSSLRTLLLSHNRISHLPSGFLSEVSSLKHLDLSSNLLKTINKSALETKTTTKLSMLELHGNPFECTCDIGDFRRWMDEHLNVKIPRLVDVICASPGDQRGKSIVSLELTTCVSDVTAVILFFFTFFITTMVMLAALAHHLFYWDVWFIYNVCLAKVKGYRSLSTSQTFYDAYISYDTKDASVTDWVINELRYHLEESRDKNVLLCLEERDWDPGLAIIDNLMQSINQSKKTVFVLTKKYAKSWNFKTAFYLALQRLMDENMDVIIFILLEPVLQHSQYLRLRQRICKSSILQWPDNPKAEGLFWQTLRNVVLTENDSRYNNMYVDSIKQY
Procedure, shortened: as §1

[3] = test system: HCV replicon in Huh-7 luc/neo cells; assay: Suppression of HCV replicon replication by conditioned media from compound-treated PBMC; format: cell-based, HCV type 1 b; conditions: Hepatitis C virus; conditioned media from compound-treated PBMC on Huh-7 luc/neo replicon cells (compounds 74 onward); read-out: PBMC HUH-7 EC50
Procedure, shortened: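 Human PBMC (≥2 donors, RPMI + 10% human AB serum, 2×10^5 cells/well) incubated overnight with compounds; supernatant transferred onto Huh-7 luc/neo HCV 1b replicon cells. After 24 h, replication read as luciferase activity. Recombinant interferon α-2a served as standard.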

[4] = test system: human TLR7 mutant sequence comprising a deletion in the second leucine-rich repeat; assay: TLR7 cellular NFκB-luc reporter assay, mutant TLR7 with deletion in the second leucine-rich repeat; format: cell-based; design: unit not given here; conditions: lowest effective concentration
Method: (§2) The ability of compounds to activate human TLR7 and/or TLR8 was assessed in a cellular reporter assay using HEK293 cells transiently transfected with a TLR7 or TLR8 expression vector and NFκB-luc reporter construct. In one instance the TLR expression construct expresses the respective wild type sequence or a mutant sequence comprising a deletion in the second leucine-rich repeat of the TLR.
(§3) Briefly, HEK293 cells were grown in culture medium (DMEM supplemented with 10% FCS and 2 mM Glutamine). For transfection of cells in 10 cm dishes, cells were detached with Trypsin-EDTA, transfected with a mix of CMV-TLR7 or TLR8 plasmid (750 ng), NFκB-luc plasmid (375 ng) and a transfection reagent and incubated for 48 hours at 37° C. in a humidified 5% CO2 atmosphere. […] Thirty microliters of cells were then dispensed into each well in 384-well plates, where 10 μL of compound in 4% DMSO was already present. Following 6 hours incubation at 37° C., 5% CO2, the luciferase activity was determined by adding 15 μl of Steady Lite Plus substrate (Perkin Elmer) to each well and readout performed on a ViewLux ultraHTS microplate imager (Perkin Elmer). Dose response curves were generated from measurements performed in quadruplicates.

[5] = test system: human TLR8 mutant sequence comprising a deletion in the second leucine-rich repeat; assay: TLR8 cellular NFκB-luc reporter assay, mutant TLR8 with deletion in the second leucine-rich repeat; format: cell-based; design: unit not given here; conditions: lowest effective concentration
Method: as §2, §3

Row | SMILES | TLR 7 wt LEC [1] | TLR 8 wt LEC [2] | EC50 [3] [nM] | TLR7-wt_LEC [1] | TLR7-dIRR2_LEC [4] | TLR8-wt_LEC [2] | TLR8-dIRR2_LEC [5]
1 | CCC[C@H](CCO)Nc1nc(N)ncc1OCc1ccccc1 [Compound 190] | 8.620 | 4.330 | 3230 |  |  |  | 
2 | CCC[C@@H](CO)Nc1nc(N)ncc1OCc1ccc2ccccc2n1 [Compound 192] | 0.080 | 0.220 | 44 |  |  |  | 
3 | CCCC[C@@H](CO)Nc1nc(N)ncc1OCc1ncc(C)c(OC)c1C [Compound 194] | 0.031 | 0.164 | 19 |  |  |  | 
4 | CCC[C@@H](CO)Nc1nc(N)ncc1OCc1nccc2ccccc12 [Compound 195] | 0.003 | 0.056 | 3 |  |  |  | 
5 | CCC[C@@H](CO)Nc1nc(N)ncc1OCCOC [Compound 196] |  |  |  | 1.900 | 0.469 | 0.687 | 
6 | CCCC[C@@H](CO)Nc1nc(N)ncc1OCCOC [Compound 197] |  |  |  | 2.650 | 0.624 | 0.767 | 
7 | CCCC[C@@H](CO)Nc1nc(N)ncc1OCc1ccc2ccccc2n1 [Compound 198] |  |  |  | 0.076 | 0.511 | 0.089 | 
8 | CCC[C@@H](CO)Nc1nc(N)ncc1OCCCc1ccc(OC)cc1 [Compound 200] |  |  |  | 0.253 | 0.181 | 0.200 | 
9 | CCCC[C@@H](CO)Nc1nc(N)ncc1OCCCc1ccc(OC)cc1 [Compound 201] |  |  |  | 0.566 | 0.647 | 0.758 | 
10 | CCC[C@@H](CO)Nc1nc(N)ncc1OCc1cccc(C)n1 [Compound 202] |  |  |  | 0.164 | 0.089 | 0.049 | 
11 | CCCC[C@@H](CO)Nc1nc(N)ncc1OCc1cccc(C)n1 [Compound 203] |  |  |  | 0.124 | 0.160 | 0.054 | 
12 | CCC[C@@H](CO)Nc1nc(N)ncc1OCCCc1ccc2c(c1)OCO2 [Compound 204] |  |  |  | 0.791 | 0.791 | 0.493 | 
13 | CCC[C@@H](CCO)Nc1nc(N)ncc1OCc1cn2ccccc2n1 [Compound 205] |  |  |  | 0.369 | 1.110 | 0.047 | 
14 | CCCCNc1nc(N)ncc1OCC1(C)COC1 [Compound 206] |  |  |  | >25 | 9.450 | >23.81 | 
15 | CCCC[C@@H](CCO)Nc1nc(N)ncc1OCc1cn2ccccc2n1 [Compound 207] |  |  |  | 0.177 | 1.450 | 0.063 | 
16 | CCCC[C@@H](CCO)Nc1nc(N)ncc1OCc1nccc2ccccc12 [Compound 208] |  |  |  | 0.001 | 0.093 |  | 

Row | SMILES | TLR 7 wt LEC [1] | TLR 8 wt LEC [2] | EC50 [3] [nM] | TLR7-wt_LEC [1] | TLR7-dIRR2_LEC [4] | TLR8-wt_LEC [2] | TLR8-dIRR2_LEC [5]
17 | CCCCNc1nc(N)ncc1OCc1cn2ccccc2n1 [Compound 209] |  |  |  | 0.074 | 0.667 | 0.076 | 
18 | CCCCNc1nc(N)ncc1OCc1ccc(C#N)cc1 [Compound 210] |  |  |  | 0.686 | 0.896 | 0.237 | 
19 | CCCCNc1nc(N)ncc1OCc1cn2ccncc2n1 [Compound 211] |  |  |  | 0.208 | 1.040 | 0.097 | 
20 | CCC[C@H](C)Nc1nc(N)ncc1OCc1nccc2ccccc12 [Compound 212] |  |  |  | 0.007 | 0.148 | 0.005 | 
21 | CCCCNc1nc(N)ncc1OCc1ncccc1F [Compound 213] |  |  |  | 0.225 | 0.207 |  | 0.032
22 | CCC[C@@H](CO)Nc1nc(N)ncc1OCc1nccc(OC)c1OC [Compound 214] |  |  |  | 0.134 | 0.593 |  | 0.027
23 | CCC[C@@H](CO)Nc1nc(N)ncc1OCc1cn2ccccc2n1 [Compound 215] |  |  |  | 0.171 | 0.300 |  | 0.029
24 | CCCC[C@@H](CO)Nc1nc(N)ncc1OCc1nccc2ccccc12 [Compound 216] |  |  |  | 0.008 | 0.111 |  | 0.002
25 | CCCC[C@@H](CO)Nc1nc(N)ncc1OCc1nccc(OC)c1OC [Compound 217] |  |  |  | 0.106 | 0.433 |  | 0.007
26 | CCCC[C@@H](CO)Nc1nc(N)ncc1OCc1cn2ccccc2n1 [Compound 218] |  |  |  | 0.154 | 0.352 |  | 0.032
27 | CCC[C@@H](C)Nc1nc(N)ncc1OCc1nccc2ccccc12 [Compound 219] |  |  |  | 0.125 | 1.640 |  | 0.029
28 | CCCCNc1nc(N)ncc1OCCCC(=O)OC [Compound 220] |  |  |  | 1.940 | 1.450 |  | 1.720
29 | CCCCNc1nc(N)ncc1OCCCC(=O)OC(C)C [Compound 221] |  |  |  | 0.654 | 0.859 |  | 0.496
30 | CCCC[C@@H](CCO)Nc1nc(N)ncc1OCc1cc2ccccc2cn1 [Compound 223] |  |  |  | 0.100 | 1.400 |  | 0.033
31 | C=CC[C@H](CCCC)Nc1nc(N)ncc1OC [Compound 292] |  |  |  | 0.913 | 3.082 |  | 
